These results are taken from KR20110129297A, “양친매성 갈롤 유도체를 유효성분으로 포함하는 항균제조성물” (전남대학교산학협력단, priority 2010, dated 2011).

Converted amounts (≈) assume the structure as drawn. “Also recorded” adds a separate entry of the source. Where two headings read alike, the source gives them in different places.

Data set [1] relates to S. aureus. The data set is described as follows: Minimum inhibitory concentration, Staphylococcus aureus. In kind it is cell-based. Particulars: 37 °C, 12-16 h, inoculum 10^5-10^7 cfu/mL, read-out: minimum inhibition concentration (MIC).
Data set [2] deals with Helicobacter pylori [헬리코박터 파일로리]. The data set is described as follows: Paper disc growth inhibition zone, Helicobacter pylori. In kind it is cell-based. The note with it: for zone of inhibition at 5 µmol/disc: Helicobacter pylori, read-out: diameter of growth inhibition zone.
For data set [3] the following is noted: no test in this patent; mouse allergy test of urushiol derivatives cited (b4); cited from earlier work.
The conditions of data set [4]: cited master's thesis / KR 2009066135 A; cited from earlier work.
Data set [5] has as its system food spoilage bacteria and pathogens [식품부패균 및 병원성균]. As to the kind of experiment: Paper disc growth inhibition zone, food spoilage bacteria and pathogens (9 strains). The note with it: 5 μmol per disc, solid medium, 12-16 h at 37, 30 or 25 °C depending on strain. In kind it is cell-based.
The subject of data set [6] is cells causing lung cancer or stomach cancer [폐암이나 위암을 일으키는 세포]. Particulars: background statement; cited from earlier work.
In data set [7] the test system is food spoilage bacteria and pathogens [식품부패균 및 병원성균]. As to the kind of experiment: Minimum inhibitory concentration, food spoilage bacteria and pathogens (9 strains). The note with it: liquid dilution 1000-4 μg/mL. In kind it is cell-based.
[8] abbreviates: paper disc, 5 μmol per disc, CO2 incubator 37 °C, 10% CO2, 95% humidity.

`O=C(O)c1ccccc1` [벤조익 에시드, benzoic acid]: the MIC in data set [1] came to 250 µM (≈ 30.5 µg/mL). As to `CCCCCc1cccc(O)c1O` [PC, 3-pentylcatechol], the zone of inhibition at 5 µmol/disc in data set [2] (setting [8]) was 31.5 ± 0.5 mm. For the same compound, the “allergenicity, in words” value in data set [3] is “알러지 비유발성”. The “antimicrobial activity, in words” value in data set [4] is recorded as “강한 항균활성을 보였던”. On to `CCCCCCCCCCCCCCCCCCCCc1ccc(O)c(O)c1O` [EG, 4-eicosyl-1,2,3-benzenetriol], for which, in data set [5], the “antimicrobial activity (growth inhibition zone), in words” value was “전혀 항균활성을 보이지 않았다”. Further, in data set [2] (setting [8]), the zone of inhibition at 5 µmol/disc was determined as 0 mm. In the case of `CCCCCCCCCCc1ccc(O)c(O)c1O` [DG, 4-decyl-1,2,3-benzenetriol], the zone of inhibition at 5 µmol/disc in data set [2] (setting [8]) turned out to be 7 mm.

As to `Oc1cccc(O)c1O` [G, pyrogallol], in data set [5], the “antimicrobial activity (growth inhibition zone), in words” value is “매우 약한 항균활성을 보였으며”. In addition, in data set [2] (setting [8]), the zone of inhibition at 5 µmol/disc is 0 mm. Besides, in data set [6], the “inhibition of cancer cell growth, in words” value is “폐암이나 위암을 일으키는 세포의 생장을 억제시키는 항암작용에도 효과가 있음”. Take `CN(C)[C@@H]1C(O)=C(C(N)=O)C(=O)[C@@]2(O)C(O)=C3C(=O)c4c(O)cccc4[C@@](C)(O)[C@H]3C[C@@H]12` [테트라사이클린, tetracycline]: in data set [2] (setting [8]), the zone of inhibition at 5 µmol/disc worked out at 9 mm.

As for `CCCCCc1ccc(O)c(O)c1O` [PG, 4-pentyl-1,2,3-benzenetriol], the “antimicrobial activity (growth inhibition zone), in words” value in data set [5] is “가장 강한 항균활성을 보였다; also recorded: PC와 비슷하거나 그보다 우수한 항균활성을 보였다”; in data set [2] (paper disc, 5 μmol per disc, compared with other gallol derivatives), “가장 강한 항균활성을 보였다”. Further, in data set [2] (setting [8]), the zone of inhibition at 5 µmol/disc is 26.7 ± 0.6 mm. Further, in data set [7], the “antimicrobial activity by minimum inhibition concentration, in words” value is “최소저해농도 결과에 있어서 뛰어난 항균활성을 나타내지 않았다; also recorded: 측쇄가 없는 G보다는 PG가 더 낮은 농도에서 활성을 보였다”. In addition, the “allergenicity, in words” value in data set [3] is “알러지 비유발성”.

With `CC1(C)S[C@@H]2[C@H](NC(=O)[C@H](N)c3ccccc3)C(=O)N2[C@H]1C(=O)O` [앰피실린, ampicillin], the zone of inhibition at 5 µmol/disc in data set [2] (setting [8]) amounted to 7 mm. Same read-out and setting: as for `CC[C@H]1OC(=O)[C@H](C)[C@@H](O[C@H]2C[C@@](C)(OC)[C@@H](O)[C@H](C)O2)[C@H](C)[C@@H](O[C@@H]2O[C@H](C)C[C@H](N(C)C)[C@H]2O)[C@](C)(O)C[C@@H](C)C(=O)[C@H](C)[C@@H](O)[C@]1(C)O` [에리스로마이신, erythromycin], the figure is 7 mm; as for `CCn1cc(C(=O)O)c(=O)c2ccc(C)nc21` [날리디식 에시드, nalidixic acid], 11 ± 0.2 mm.

For the compound `CCCCCCCCCCCCCCCc1ccc(O)c(O)c1O` [PDG, 4-pentadecyl-1,2,3-benzenetriol], the “antimicrobial activity (growth inhibition zone), in words” value in data set [5] is listed as “전혀 항균활성을 보이지 않았다”. For the same compound, the zone of inhibition at 5 µmol/disc in data set [2] came to 0 mm.
